Results from the supplement of paper PMC8967900.

How the values were obtained:
Test in all cases: selective drug sensitivity score (sDSS, relative to normal bone marrow) (sDSS (score)); higher = more potent and effective on the cell line relative to normal bone marrow cells
Conditions in all cases: 72 h
COG-LL-402h = system: COG-LL-402h
MHH-CALL-4 = system: MHH-CALL-4
RPMI-8402 = system: RPMI-8402
CCRF-HSB2 = system: CCRF-HSB2
SEM cells = system: SEM cells
HPB-ALL = system: HPB-ALL
P12-ICHIKAWA = system: P12-ICHIKAWA
KASUMI-10 = system: KASUMI-10
MHH-CALL-2 = system: MHH-CALL-2
DND-41 = system: DND-41
ALL-PO = system: ALL-PO
MOLT-16 = system: MOLT-16
SUP-B15 = system: SUP-B15
KOPN-8 = system: KOPN-8
RCH-ACV = system: RCH-ACV
KASUMI-2 = system: KASUMI-2
COG-LL-394h = system: COG-LL-394h
HAL-01 = system: HAL-01
COG-LL-317 = system: COG-LL-317
ALL-SIL = system: ALL-SIL
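Further: ALL cell lines in 384-well plates, five doses spanning 10,000-fold, each plate scaled between vehicle and 100 µmol/L benzalkonium chloride controls, sDSS an adapted area-under-curve metric.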

Compound | selective drug sensitivity score (COG-LL-402h) | selective drug sensitivity score (MHH-CALL-4) | selective drug sensitivity score (RPMI-8402) | selective drug sensitivity score (CCRF-HSB2) | selective drug sensitivity score (SEM cells) | selective drug sensitivity score (HPB-ALL) | selective drug sensitivity score (P12-ICHIKAWA) | selective drug sensitivity score (KASUMI-10) | selective drug sensitivity score (MHH-CALL-2) | selective drug sensitivity score (DND-41) | selective drug sensitivity score (ALL-PO) | selective drug sensitivity score (MOLT-16) | selective drug sensitivity score (SUP-B15) | selective drug sensitivity score (KOPN-8) | selective drug sensitivity score (RCH-ACV) | selective drug sensitivity score (KASUMI-2) | selective drug sensitivity score (COG-LL-394h) | selective drug sensitivity score (HAL-01) | selective drug sensitivity score (COG-LL-317) | selective drug sensitivity score (ALL-SIL)
COc1cccc(OCCCN)c1-c1cc(Nc2cnc(C#N)cn2)n[nH]1 [Prexasertib] (top concentration 10000 nM) | 14.8 | 11.4 | 19.2 | 18.6 | 15.9 | 14.6 | 19 | 16.1 | 20.1 | 19.6 | 14.5 | 21 | 20.9 | 20.4 | 20.9 | 16.2 | -0.96 | 19 | 20.2 | 20.8
C[C@]1(c2nc3c(C(N)=O)cccc3[nH]2)CCCN1 [Veliparib] (top concentration 10000 nM) | -3.48 | 6.72 | -3.88 | -2.18 | -4.18 | -0.28 | -4.18 | -1.08 | 5.02 | -4.18 | -1.78 | 0.32 | -1.08 | 5.52 | -2.58 | 2.82 | -4.18 | 1.02 | 1.72 | -4.18
NC[C@@](O)(c1ccc(Cl)cc1)c1ccc(-c2cn[nH]c2)cc1 (top concentration 10000 nM) | 5.78 | 1.78 | 3.28 | 5.28 | 6.58 | -0.72 | 3.58 | -1.22 | 2.58 | -1.22 | 3.98 | 0.38 | 6.78 | 3.38 | 7.58 | 2.78 | -1.22 | 1.08 | 0.98 | -1.22
COc1ccc(Cn2ccc3ccc(C(=O)NO)cc32)cc1 (top concentration 10000 nM) | 5.44 | 0.64 | 1.54 | 6.64 | 2.94 | 0.84 | 2.34 | 3.14 | 6.24 | 2.94 | 2.84 | 4.04 | 3.64 | 8.74 | 1.54 | -1.06 | 0.94 | 5.84 | 13.7 | 2.64
Cn1nccc1Nc1nccc(-c2ccn([C@H](CO)c3ccc(Cl)c(F)c3)c(=O)c2)n1 [Ravoxertinib] (top concentration 10000 nM) | 3.4 | 11 | 1.9 | -1.2 | 0.7 | -0.4 | 2.1 | 5.2 | 8.4 | 4.5 | 3.6 | 4 | 12.6 | 13.6 | 4.5 | 4.2 | -0.2 | 1.9 | 4.8 | -3.2
COc1cccc2c1C(=O)c1c(O)c3c(c(O)c1C2=O)C[C@@](O)(C(=O)CO)C[C@@H]3O[C@H]1C[C@H](N)[C@H](O)[C@H](C)O1 [Doxorubicin] (top concentration 1000 nM) | 13.1 | 9.08 | 5.58 | 14.4 | 4.08 | -0.42 | 5.08 | 7.48 | 10.4 | 1.58 | -0.12 | 16.1 | 11.4 | 13.3 | 10.6 | 7.68 | 7.18 | 1.38 | 15 | 1.68
O=C(Nc1cc(Oc2cc(F)c(NC(=O)C3(C(=O)Nc4ccc(F)cc4)CC3)cc2F)ccn1)C1CC1 [Altiratinib] (top concentration 10000 nM) | -2.16 | 2.84 | 1.64 | 8.14 | 13.7 | 3.54 | 0.34 | 8.84 | 3.74 | 3.74 | 8.94 | 0.04 | 6.64 | 3.74 | 7.24 | -0.66 | 1.84 | 1.14 | -0.46 | 13.9
N#CCNC(=O)c1ccc(-c2ccnc(Nc3ccc(N4CCOCC4)cc3)n2)cc1 [Momelotinib] (top concentration 10000 nM) | -0.12 | -1.12 | -0.82 | 1.08 | 1.48 | -8.52 | -0.12 | 0.98 | -2.22 | -0.32 | 2.48 | 0.28 | 0.88 | -1.62 | 5.78 | -5.82 | -3.92 | -5.22 | -5.32 | -1.82
Cc1ccc(C(=O)Nc2ccc(Oc3cc4cnn(C)c4cc3-c3cn[nH]c3)c(F)c2)c(=O)n1-c1ccc(F)cc1 [Merestinib] (top concentration 1000 nM) | -0.62 | -0.42 | -0.62 | -0.22 | 19.8 | -0.62 | -0.62 | 14.8 | 9.68 | -0.62 | 15.2 | -0.62 | -0.62 | -0.62 | 1.08 | -0.62 | -0.62 | 5.68 | -0.62 | 0.28
COc1cc(N2CCC(N3CCN(C)CC3)CC2)ccc1Nc1ncc(Cl)c(Nc2ccccc2P(C)(C)=O)n1 [Brigatinib] (top concentration 1000 nM) | -2.04 | -3.34 | -2.44 | -1.14 | 4.06 | 3.06 | -3.34 | 4.76 | 7.66 | 7.16 | 4.16 | -3.34 | -3.34 | -3.34 | 8.86 | -3.24 | -1.84 | 6.06 | -2.34 | -3.34
CC(C)c1cc(-c2n[nH]c(=O)n2-c2ccc3c(ccn3C)c2)c(O)cc1O [Ganetespib] (top concentration 1000 nM) | 4.54 | -0.56 | -1.66 | 4.34 | 1.24 | 0.64 | -0.96 | 4.64 | -1.36 | 2.94 | 3.84 | 4.74 | 1.74 | 10.1 | 3.44 | 6.04 | -3.26 | 0.74 | 8.64 | 1.14
C/C=C1\NC(=O)[C@H]2CSSCC/C=C/[C@H](CC(=O)N[C@H](C(C)C)C(=O)N2)OC(=O)[C@H](C(C)C)NC1=O [Romidepsin] (top concentration 1000 nM) | 8.76 | 3.06 | 1.66 | 1.46 | 3.96 | 3.66 | 1.66 | 1.86 | 6.76 | 4.76 | 6.96 | 2.76 | 4.16 | 3.16 | 2.36 | 5.06 | -0.94 | -17.5 | 0.76 | 3.26
CCCCc1nc2cc(/C=C/C(=O)NO)ccc2n1CCN(CC)CC [Pracinostat] (top concentration 10000 nM) | 13 | 6.28 | 5.08 | 5.88 | 5.28 | 6.88 | 5.08 | 6.18 | 8.98 | 3.48 | 5.58 | 6.28 | 5.98 | 8.68 | 14.6 | 12.5 | 0.18 | 1.88 | 3.88 | 5.18
COc1cc(Nc2ncc(F)c(Nc3ccc4c(n3)N(COP(=O)(O)O)C(=O)C(C)(C)O4)n2)cc(OC)c1OC [Fostamatinib] (top concentration 2500 nM) | 3.46 | -2.74 | -0.24 | 4.46 | 9.96 | -1.94 | -2.84 | 8.66 | 0.56 | -0.64 | 8.06 | -2.84 | 0.96 | 4.66 | 7.96 | -2.84 | -1.54 | 0.76 | -2.84 | 1.96
COC[C@H](NC(=O)c1cnc(C)s1)C(=O)N[C@@H](COC)C(=O)N[C@@H](Cc1ccccc1)C(=O)[C@@]1(C)CO1 [Oprozomib] (top concentration 2500 nM) | 2.2 | 1.4 | 2.8 | 14.2 | 11.3 | -0.5 | 2.1 | 3.7 | 0.4 | 11.1 | 0.8 | 4.7 | 14 | 3 | -1.1 | -1.1 | 1.2 | -0.8 | 7.9 | -0.1
COc1cc2c(Oc3ccc(NC(=O)C4(C(=O)Nc5ccc(F)cc5)CC4)cc3F)ccnc2cc1OCCCN1CCOCC1 [Foretinib] (top concentration 1000 nM) | 1.64 | 1.64 | 0.34 | 6.24 | 20.9 | 3.34 | 1.34 | 17.8 | 7.04 | -4.46 | 10.8 | 0.24 | 8.74 | 7.84 | 0.44 | -2.96 | 1.84 | 3.34 | 0.44 | 13.6
C[C@@H](Oc1ccc2[nH]nc(/C=C/c3cnn(CCO)c3)c2c1)c1c(Cl)cncc1Cl (top concentration 1000 nM) | -2.14 | -0.64 | -3.14 | 3.86 | 6.26 | 1.46 | -2.64 | 5.46 | -0.74 | 7.06 | 4.96 | -2.04 | 6.76 | -2.44 | 10.6 | -7.04 | -0.54 | 1.36 | -2.74 | 14.3
O=C(NC1CCNCC1)c1n[nH]cc1NC(=O)c1c(Cl)cccc1Cl [AT7519] (top concentration 10000 nM) | -3.66 | -1.26 | -7.46 | -3.46 | -4.76 | -10.8 | -8.66 | -2.76 | -2.06 | -5.66 | -14.4 | -3.06 | -4.56 | -5.06 | -3.16 | -4.46 | -1.06 | -14.6 | -4.06 | -6.06
